According to patent publication US20040248864A1, “Use of anthroquinones in the treatment of kidney disease” (priority 2001, published 2004):
Where two headings read alike, the source gives them in different places.

Experiments:
[1] = humans; cited from earlier work
IL-1 = details: Yaron et al 1999; Moldovan 2000; cited from earlier work
nephrotoxic nephritis = experiment: rat model of nephritis (nephrotoxic nephritis): proteinuria and renal histology (crescents); type: in vivo; details: for proteinuria compared to the control: diacerein 50, 100 and oral once a day, prednisolone 2 mg/kg
Protocol: Experiments were conducted, using a rat model of nephritis (nephrotoxic nephritis) (Karkar et al, Kidney International, 1997). This is an aggressive immune driven model which parallels clinical conditions such as lupus nephritis, glomerulonephritis, IgA nephropathy and other immune-mediated nephritic diseases.
[…] Development of nephrotoxic nephritis was measured by the degree of proteinuria (in the control group) at days 6 and 10, post-disease initiation and by renal histology at day 10, quantified by the number of damaged nephrons (crescents) per histology section. These end-points were used to determine the success of the diacerein treatment. Alongside diacerein treatment, a negative control (drug vehicle only) and positive control (2 mg/kg prednisolone) were tested.

[2] = PK profile: plasma concentration of rhein after oral dosing with diacerein; type: in vivo; details: rat
Protocol: FIG. 1 is a PK profile, i.e. a graph of plasma concentration of rhein (mg/ml) against time (min) post-dosing with 100, 200 and 300 mg/kg diacerein.
Consequently, the dosing for the nephrotoxic nephritis experiment was based around this dose range (see below).

[3] = tested on: inducible nitric oxide synthase; details: osteochondrocytes, IL-1b stimulated; Pelletier 1998; cited from earlier work
TIMP-1 = details: Tamura et al 2001; cited from earlier work
[4] = tested on: MMPs 1, 3, 9 & 13 and pro-MMPs; details: Tamura et al 2001; cited from earlier work
[5] = day 6 post-disease initiation, significant at highest dose (p<0.01)
[6] = day 10 post-disease initiation, significant at top dose (p<0.01)

In the case of `CC(=O)Oc1cccc2c1C(=O)c1c(OC(C)=O)cc(C(=O)O)cc1C2=O` [diacerein], the “oral dose required to obtain therapeutic plasma concentrations of drug” value [1] is listed as 0.8 mg/kg, the “production of the pro-inflammatory cytokine IL-1” value (IL-1) is listed as “reduce the production” and the “proteinuria compared to the control” value (nephrotoxic nephritis; [5]) is listed as “decreased compared to the control”. For the same compound, the “nephron damage (crescents per histology section)” value (nephrotoxic nephritis; day 10 histology, 50 mg/kg diacerein) was “decrease in nephron damage”, the “nephron damage (crescents per histology section)” value (nephrotoxic nephritis; day 10 histology, 100 mg/kg diacerein, significant (p<0.05)) was “decrease in nephron damage” and the “nephron damage (crescents per histology section)” value (nephrotoxic nephritis; day 10 histology, 200 mg/kg diacerein) was “slight increase again”. The “proteinuria compared to the control” value (nephrotoxic nephritis; [6]) was “dose-dependant decrease in proteinuria”, the “effect on both proteinuria and renal damage associated with nephrotoxic nephritis” value (nephrotoxic nephritis; overall summary of the study) was “significant effect” and the “oral dose required to obtain therapeutic plasma concentrations of drug” value [2] was 100 to 200 mg/kg. For the same compound, the “production of inducible nitric oxide synthase and production of nitric oxide” value [3] was “reduce the production”.

For `C[C@]12C=CC(=O)C=C1CC[C@@H]1[C@@H]2[C@@H](O)C[C@@]2(C)[C@H]1CC[C@]2(O)C(=O)CO` [prednisolone], the “proteinuria compared to the control” value (nephrotoxic nephritis; [5]) was “markedly reduced proteinuria”, the “effect on renal damage (histology)” value (nephrotoxic nephritis; day 10 histology, 2 mg/kg prednisolone) was “negligible” and the “proteinuria compared to the control” value (nephrotoxic nephritis; [6]) was “unexpected rebound above the control proteinuria levels”.

For `O=C(O)c1cc(O)c2c(c1)C(=O)c1cccc(O)c1C2=O` [rhein], the “production of the pro-inflammatory cytokine IL-1” value (IL-1) is given as “reduce the production”, the “production of tissue inhibitor of matrix MMP-1, TIMP-1” value (TIMP-1) is given as “increases the production” and the “production of key matrix metalloproteinases MMPs 1, 3, 9 & 13 and pro-MMPs” value [4] is given as “down-regulates the production”. The “production of inducible nitric oxide synthase and production of nitric oxide” value [3] was “reduce the production”.
